The source made the active and inactive calls. No cut-off for these calls is given here.

The source of these data is ChEMBL document CHEMBL5046277, “Rational Design for Nitroreductase (NTR)-Responsive Proteolysis Targeting Chimeras (PROTACs) Selectively Targeting Tumor Tissues” (J Med Chem, 2022).

Experiment [1] concerns HCC827. Briefly: Antiproliferative activity against human HCC827 cells assessed as cell viability measured after 72 hrs by CCK-8 assay. Type of experiment: functional, cell-based. (In general: Tetrazolium dyes change colour on reduction, which living cells bring about.)
For experiment [2], the target named is Epidermal growth factor receptor (Homo sapiens) (UniProt P00533). Briefly: Induction of EGFR degradation in human HCC827 cells assessed as EGFR protein level measured after 72 hrs by Western blot assay. Type of experiment: cell-based. A general note: Immunoblotting shows a protein as a band on a membrane.
For experiment [3] the target is unchanged. Kind of experiment: Induction of EGFR degradation in human HCC827 cells assessed as EGFR protein level measured after 72 hrs under normoxic condition by Western blot assay. Type of experiment: functional, cell-based.
Experiment [4] deals with von Hippel-Lindau disease tumor suppressor/Epidermal growth factor receptor (Homo sapiens) (UniProt P00533+P40337). Briefly: Protac activity at VHL/EGFR in human HCC827 cells assessed as induction of EGFR degradation at 100 nM pretreated for 2 hrs with VHL-L followed by compound addition. Type of experiment: cell-based.
In experiment [5] the test system is HCC827. Kind of experiment: Antiproliferative activity against human HCC827 cells assessed as reduction in cell viability measured after 72 hrs under normoxic condition by CCK-8 assay. Type of experiment: functional, cell-based. The note with it: HCC827, 72 h.
Experiment [6] relates to HCC827. Briefly: Antiproliferative activity against human HCC827 cells assessed as cell viability measured after 72 hrs under hypoxic condition by CCK-8 assay. Type of experiment: functional, cell-based. The note with it: HCC827, 72 h.
Experiment [7] deals with HCC827. Kind of experiment: Antiproliferative activity against human HCC827 cells assessed as cell viability measured after 72 hrs in presence of NTR by CCK-8 assay. The note with it: HCC827, 72 h. Type of experiment: functional, cell-based.

Epidermal growth factor receptor (Homo sapiens), sequence (P00533 whole entry): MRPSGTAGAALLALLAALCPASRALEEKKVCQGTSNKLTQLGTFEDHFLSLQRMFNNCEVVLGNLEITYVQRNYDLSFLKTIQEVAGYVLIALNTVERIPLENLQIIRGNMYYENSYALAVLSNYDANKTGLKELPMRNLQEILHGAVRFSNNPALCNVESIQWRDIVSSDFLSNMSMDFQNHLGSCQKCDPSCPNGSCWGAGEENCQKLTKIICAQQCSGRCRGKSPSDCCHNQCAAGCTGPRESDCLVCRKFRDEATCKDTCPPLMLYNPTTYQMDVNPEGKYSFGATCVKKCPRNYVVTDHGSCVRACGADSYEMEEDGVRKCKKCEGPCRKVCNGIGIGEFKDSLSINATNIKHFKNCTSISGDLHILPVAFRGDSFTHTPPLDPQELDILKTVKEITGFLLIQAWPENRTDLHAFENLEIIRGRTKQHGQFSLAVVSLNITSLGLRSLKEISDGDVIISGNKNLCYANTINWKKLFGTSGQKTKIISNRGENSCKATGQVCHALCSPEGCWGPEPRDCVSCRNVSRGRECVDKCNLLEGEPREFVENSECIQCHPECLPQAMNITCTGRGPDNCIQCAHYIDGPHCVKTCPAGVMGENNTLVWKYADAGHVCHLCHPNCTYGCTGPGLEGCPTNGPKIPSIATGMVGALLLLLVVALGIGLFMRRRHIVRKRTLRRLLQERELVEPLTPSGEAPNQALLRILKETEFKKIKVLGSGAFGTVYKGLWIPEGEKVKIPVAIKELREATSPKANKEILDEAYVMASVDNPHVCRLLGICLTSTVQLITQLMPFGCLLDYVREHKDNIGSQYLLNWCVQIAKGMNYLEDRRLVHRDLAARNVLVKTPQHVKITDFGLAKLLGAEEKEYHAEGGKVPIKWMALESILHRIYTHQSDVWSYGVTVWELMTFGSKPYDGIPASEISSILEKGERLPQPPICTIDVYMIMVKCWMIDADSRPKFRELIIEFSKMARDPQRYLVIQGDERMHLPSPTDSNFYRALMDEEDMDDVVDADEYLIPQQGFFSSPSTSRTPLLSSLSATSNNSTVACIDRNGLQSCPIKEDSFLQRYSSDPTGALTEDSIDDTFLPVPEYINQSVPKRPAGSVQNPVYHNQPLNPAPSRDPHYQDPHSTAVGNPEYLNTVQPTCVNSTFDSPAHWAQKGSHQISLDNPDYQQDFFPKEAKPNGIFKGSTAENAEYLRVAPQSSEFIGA
von Hippel-Lindau disease tumor suppressor/Epidermal growth factor receptor (Homo sapiens), sequence (P00533 25-1210 limits assumed): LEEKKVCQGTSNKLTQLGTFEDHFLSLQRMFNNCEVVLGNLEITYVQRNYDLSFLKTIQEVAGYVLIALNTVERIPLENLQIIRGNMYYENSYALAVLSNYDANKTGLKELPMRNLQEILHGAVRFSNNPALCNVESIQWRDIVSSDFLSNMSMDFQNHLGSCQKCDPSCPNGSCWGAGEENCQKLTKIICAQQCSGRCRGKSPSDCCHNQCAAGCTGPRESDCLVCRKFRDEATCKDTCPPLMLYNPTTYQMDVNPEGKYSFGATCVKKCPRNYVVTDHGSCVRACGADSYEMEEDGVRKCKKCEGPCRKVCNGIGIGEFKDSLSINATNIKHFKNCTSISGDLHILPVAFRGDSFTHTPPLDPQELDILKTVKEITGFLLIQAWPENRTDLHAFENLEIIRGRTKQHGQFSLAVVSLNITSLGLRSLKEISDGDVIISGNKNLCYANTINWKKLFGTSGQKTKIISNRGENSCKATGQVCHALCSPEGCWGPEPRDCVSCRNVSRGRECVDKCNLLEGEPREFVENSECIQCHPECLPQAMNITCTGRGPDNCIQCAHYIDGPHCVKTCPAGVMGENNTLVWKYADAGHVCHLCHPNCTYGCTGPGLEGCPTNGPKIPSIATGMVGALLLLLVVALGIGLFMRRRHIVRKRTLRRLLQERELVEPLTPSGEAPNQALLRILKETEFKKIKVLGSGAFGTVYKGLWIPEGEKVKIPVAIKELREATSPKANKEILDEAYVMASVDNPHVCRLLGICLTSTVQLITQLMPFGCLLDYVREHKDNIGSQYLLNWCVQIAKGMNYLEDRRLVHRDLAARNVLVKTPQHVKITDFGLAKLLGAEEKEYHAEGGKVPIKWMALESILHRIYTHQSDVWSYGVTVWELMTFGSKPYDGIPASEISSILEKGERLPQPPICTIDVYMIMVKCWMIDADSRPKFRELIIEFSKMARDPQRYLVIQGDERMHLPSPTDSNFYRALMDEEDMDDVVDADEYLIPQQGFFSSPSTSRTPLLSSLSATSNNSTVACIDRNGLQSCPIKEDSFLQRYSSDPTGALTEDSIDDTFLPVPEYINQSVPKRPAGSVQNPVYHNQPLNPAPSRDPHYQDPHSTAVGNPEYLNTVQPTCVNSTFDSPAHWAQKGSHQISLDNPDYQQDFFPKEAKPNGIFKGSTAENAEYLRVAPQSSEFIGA
von Hippel-Lindau disease tumor suppressor/Epidermal growth factor receptor (Homo sapiens), sequence (P40337 whole entry partner): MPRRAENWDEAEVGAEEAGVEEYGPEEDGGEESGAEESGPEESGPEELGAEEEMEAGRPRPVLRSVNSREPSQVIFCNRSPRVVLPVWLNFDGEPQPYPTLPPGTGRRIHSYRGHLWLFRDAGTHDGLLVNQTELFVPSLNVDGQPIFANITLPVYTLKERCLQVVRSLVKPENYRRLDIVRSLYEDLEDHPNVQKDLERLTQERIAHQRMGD

As for `Cc1ncsc1-c1ccc(CNC(=O)[C@@H]2C[C@@H](O)CN2C(=O)[C@@H](NC(=O)COCCOCCOCCn2cc(COc3cc4ncnc(Nc5ccc(F)c(Cl)c5)c4cc3NC(=O)/C=C/CN3CCCCC3)nn2)C(C)(C)C)cc1`, the result (in the experiment on HCC827 [1]; in experiment [2]; in experiment [3]) was inactive.
What is called IC50 is the concentration that gives 50% inhibition. Turning to `Cc1ncsc1-c1ccc(CNC(=O)[C@@H]2C[C@@H](O)CN2C(=O)[C@@H](NC(=O)COCCOCCn2cc(CCCCCOc3cc4ncnc(Nc5ccc(F)c(Cl)c5)c4cc3NC(=O)/C=C/CN3CCCCC3)nn2)C(C)(C)C)cc1`, in experiment [4], the result was Active. In addition, the IC50 with HCC827 [5] is 4 nM; in the experiment with HCC827 [6] it was 18.7 nM; in the experiment on HCC827 [7] it was 6 nM. Also, the Activity entry in experiment [3] is “Dose-Dependent Effect”.
